We go through eight molecules from PubChem BioAssay (NCI).

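These data come from cells grown in 96-well plates and exposed to compound for 48 hours at five concentrations. GI50 marks 50% less growth. TGI is the concentration that stops growth completely.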

Test systems include KM20L2 colon; M19-MEL melanoma; RXF-631 renal; LXFL 529 NSCLC; NCI/ADR-RES ovarian.
Holding throughout (test): inhibition of tumour cell growth, NCI panel, 48 h

With `CCCCCCCCCCC(O)C1CCC(C(O)CCC(O)C2CCC(CCCCCCC[C@H](O)CC3=C[C@@H](C)OC3=O)O2)O1` (some centres undefined), the TGI in the assay with KM20L2 colon was over 100 µM; with M19-MEL melanoma it was over 100 µM; in the assay on RXF-631 renal it was over 100 µM; with LXFL 529 NSCLC it was over 100 µM; in the assay on NCI/ADR-RES ovarian it was 8.23 µM.

For the molecule `CCn1c(O)c(C=N)c(=O)n(CC)c1=O`, the TGI in the assay with KM20L2 colon, with M19-MEL melanoma, in the assay on RXF-631 renal and in the assay on LXFL 529 NSCLC was over 100 µM each time.

Turning to `CSc1nc(NC(=O)O)c(N(C(C)=O)C(=O)O)c(=O)n1C`, the TGI in the assay on KM20L2 colon, in the assay on M19-MEL melanoma, with RXF-631 renal and with LXFL 529 NSCLC was over 100 µM in each case.

Consider `NC(=S)N/N=C(\C(=O)Nc1cccc([N+](=O)[O-])c1)c1nc2ccc([N+](=O)[O-])cc2[nH]c1=O`, for which the TGI in the assay on KM20L2 colon, in the assay with M19-MEL melanoma, in the assay with RXF-631 renal and with LXFL 529 NSCLC was over 100 µM in each case.

In the case of `CCC[CH2][Sn]([CH2]CCC)([O]C(=O)C(N)CSC)[O]C(=O)C(N)CSC` (centres undefined), the GI50 in the assay with KM20L2 colon was 18.6 µM; in the assay with M19-MEL melanoma, 6.65 µM; in the assay on RXF-631 renal it was 3.16 µM; in the assay on LXFL 529 NSCLC it was 0.969 µM. Moreover, the TGI in the assay on KM20L2 colon turned out to be 53.4 µM; in the assay with M19-MEL melanoma it was 19.5 µM; in the assay on RXF-631 renal, 17.3 µM; in the assay with LXFL 529 NSCLC it was 3.49 µM.

`O=c1ccnc2c1ccc1[nH]cccc12`: the TGI in the assay with KM20L2 colon, with M19-MEL melanoma, in the assay on RXF-631 renal and in the assay with LXFL 529 NSCLC was over 100 µM in each case.

As for `COc1ccc2cc3[n+](cc2c1OC)CCc1cc(O)c(O)cc1-3`, the TGI with KM20L2 colon, with M19-MEL melanoma, in the assay on RXF-631 renal and in the assay on LXFL 529 NSCLC was over 100 µM throughout.

`Cc1ccc(NC(=O)CC(=O)n2nc(-c3ccccc3)c(N=Nc3ccccc3Cl)c2-c2ccccc2)cc1`: the GI50 with KM20L2 colon and with M19-MEL melanoma was over 100 µM in each case. Also, the TGI with KM20L2 colon, with M19-MEL melanoma, in the assay on RXF-631 renal and in the assay with LXFL 529 NSCLC was over 100 µM each time.
